From patent US9206236B2, “Peptides for treating cancer” (Gene Signal International SA, priority 2010, dated 2015)
“Also recorded” adds a separate entry of the source. Where a SMILES comes first, the peptide text is derived from it. [ ]: non-standard residue; d: D form. pY = N[C@@H](Cc1ccc(OP(=O)(O)O)cc1)C(=O)O

Tests used:
[1] = system: NCI-H460 tumors; test: NCI-H460 tumor xenograft in nude mice, tumor volume (Example 2); assay type: in vivo
Procedure: H460 cell line has cytology compatible with human Non-Small Cell Lung Cancer (NSCL). Cells were grown in MEM medium containing 10% FCS at 37° C., 5% CO2 humidified atmosphere. The absence of mycoplasms was confirmed by using the PCR Mycoplasma Detection kit (Takara). All experiments were reviewed by the Genopole's institutional animal care and use committee and were performed in accordance with institutional guidelines for animal care. Female BALB/c nu/nu mice (n=30) were used at 5-6 weeks of age. The animals were housed in laminar air-flow cabinets under pathogen-free conditions with a 12 h light/12 h dark schedule, and fed autoclaved standard chow and water ad libitum. The NCI-H460 human NSCL cell line was obtained from American Type Culture Collection (ATCC) and cells were grown in RPMI medium 1640 supplemented with 1 μM sodium pyruvate. Tumor cells (10^7 cells in 200 μl of HBSS) were injected subcutaneously into the right flanks of mice. After engraftment, tumor volume was measured by Vernier callipers, and calculated as described in Balsari A et al. (Balsari A et al. (2004) Eur J Cancer 40: 1275-1281). At tumor volume about 150 mm3, animals were randomized, and separated into five groups of five animals. Control mice (group 1) were intraperitoneally injected with vehicle (10% DMSO in buffer saline) every day. GS-0 was dissolved in vehicle and intraperitoneally injected (group 2) every day (12 injections). GS-1 was dissolved in vehicle and intraperitoneally injected (group 3) every day (12 injections). Tumor volume and body weight were measured every other day over the treatment period (12 days). GS-1 as well as the control peptide GS-0 were solubilized in DMSO and the resulting solutions were diluted 10 times with phosphate buffer saline (PBS) to obtain a concentration of 1 mg of peptide/ml of 10% DMSO in PBS. At this concentration, all peptides were soluble in 10% DMSO.

[2] = Solubility of peptides in 10% DMSO in PBS; assay type: physicochemical; settings: 1 mg of peptide/ml of 10% DMSO in PBS
Procedure: GS-1 as well as the control peptide GS-0 were solubilized in DMSO and the resulting solutions were diluted 10 times with phosphate buffer saline (PBS) to obtain a concentration of 1 mg of peptide/ml of 10% DMSO in PBS. At this concentration, all peptides were soluble in 10% DMSO.
GS-2 as well as the control peptide GS-0 were solubilized in DMSO and the resulting solutions were diluted 10 times with phosphate buffer saline (PBS) to obtain a concentration of 1 mg of peptide/ml of 10% DMSO in PBS. At this concentration, all peptides were soluble in 10% DMSO.

[3] = Body weight and toxicity of mice bearing NCI-H460 tumors (Example 2); assay type: in vivo
Procedure: All experiments were reviewed by the Genopole's institutional animal care and use committee and were performed in accordance with institutional guidelines for animal care. Female BALB/c nu/nu mice (n=30) were used at 5-6 weeks of age. The animals were housed in laminar air-flow cabinets under pathogen-free conditions with a 12 h light/12 h dark schedule, and fed autoclaved standard chow and water ad libitum. […] Tumor cells (10^7 cells in 200 μl of HBSS) were injected subcutaneously into the right flanks of mice. […] At tumor volume about 150 mm3, animals were randomized, and separated into five groups of five animals. Control mice (group 1) were intraperitoneally injected with vehicle (10% DMSO in buffer saline) every day. GS-0 was dissolved in vehicle and intraperitoneally injected (group 2) every day (12 injections). GS-1 was dissolved in vehicle and intraperitoneally injected (group 3) every day (12 injections). Tumor volume and body weight were measured every other day over the treatment period (12 days).

[4] = system: human microvascular endothelial cells (HMEC); test: In vitro angiogenesis assay (Matrigel tube formation); assay type: cell-based; settings: 500 μg/ml final concentration of peptide, images at 18 h
Procedure: Angiogenesis of human microvascular endothelial cells (HMEC) was induced in vitro using a Matrigel assay described by Al-Mahmood et al (2009, JPET, 2009; 58:933). This method is based on the differentiation of endothelial cells to form capillary structures on a Matrigel Matrix. Matrigel is prepared the Engelbreth-Holm-Swarm (EHS) mouse tumor, which represents a complex mixture of basement membrane proteins including type IV collagen, entactin, proteo-heparan sulfate and other growth factors.
Briefly, 250 μl of Matrigel were transferred to each well of a 24-well culture plate and incubated at 37° C. for 30 min to allow for the matrix solution to solidify. HMEC grown in complete growth medium EGM-2MV were harvested by trypsin, suspended in the same growth medium and 500 μl containing 70 000 cells were added on top of the solidified Matrigel in each well and in the presence or absence of peptide. Cells were maintained in a humidified atmosphere air containing 5% CO2 at 37° C. for 18-24 hrs. Endothelial tube formation was observed and photographed under an inverted light microscope.
The designed tyrosine phosphorylated and non phosphorylated peptides were tested for their influence onto the in vitro angiogenesis. The results of the in vitro angiogenesis assay were presented in FIG. 1, using HMEC and 500 μg/ml final concentration of each peptide.

[5] = system: mTOR; test: mTOR status in HMEC after incubation with peptides (anti-mTor antibody Ser2448); assay type: cell-based, human
Procedure: (§1) Human EC grown in EGM-2MV (80% confluence) were incubated with the peptides of the invention or vehicle for the indicated time, washed three times in cold PBS and directly lysed in 2 ml of ice-cold lysis buffer (10 mM Tris pH 7.5, 150 mM NaCl, 1 mM PMSF, 0.5 μg/ml leupeptin, 1 μg/ml pepstatin A, and 1 μg/ml aprotinin) by incubation for 30 min at 4° C. Cell lysate were spun at […] for 10 min, insoluble materials were discarded, and protein contents measured by Bradford assay of supernatants were adjusted. Cell lysate (1 ml) was precleared with 25 μl of protein G-plus agarose beads (Santa Cruz) for 30 min, and proteins were then immunoprecipitated by adding 2 μg of the indicated antibody and incubated for 1 hr. The immunocomplex was pulled down with protein G-plus agarose beads and the beads were washed three times with lysis buffer. The immunoprecipitates were separated by NuPAGE® 4-12% Bis-Tris gel electrophoresis under reducing conditions, transferred to PVDF membrane (Novex System, Invitrogen), and the membrane was blocked with 5% (w/v) non-fat milk in TBS containing 0.1% v/v Tween-20 for 1 hr.
The status of mTOR in the HMEC following incubation with peptides GS-0 and GS-1 was investigated.

[6] = molecular target: T1, recruitment of the regulatory subunit (p85) of the enzyme PI-3K by IRS-1 (Homo sapiens, UniProt P27986); test: Recruitment of p85 of PI-3K by IRS-1 (IRS-1 immunoprecipitation, anti-p85 immunoblot) in HMEC; assay type: cell-based; settings: final concentration of peptide 500 μg/ml
T1 construct: endogenous in cells; host or cells: human microvascular endothelial cells (HMEC)
Procedure: as §1
As it is widely admitted that the tyrosine phosphorylation of IRS-1 leads to its association with the regulatory subunit (p85) of the enzyme PI-3K, and this event lead to important increases in the enzymatic activity of this later, we have investigated the influence of the tyrosine phosphorylated and non phosphorylated peptides onto the recruitment of the regulatory subunit (p85) of the enzyme PI-3K by IRS-1. For that, human microvascular endothelial cells (HMEC) were incubated with the tyrosine phosphorylated and non phosphorylated peptides (final concentration of peptide 500 μg/ml) followed by cells lysis and immuoprecipitation of the protein IRS-1. The immunoprecipitates were then resolved in SDS-PAGE, proteins were transferred to membranes, and the membranes were immunoblotted with an anti-p85 PI3K monoclonal antibody.

T1 sequence (P27986 whole entry): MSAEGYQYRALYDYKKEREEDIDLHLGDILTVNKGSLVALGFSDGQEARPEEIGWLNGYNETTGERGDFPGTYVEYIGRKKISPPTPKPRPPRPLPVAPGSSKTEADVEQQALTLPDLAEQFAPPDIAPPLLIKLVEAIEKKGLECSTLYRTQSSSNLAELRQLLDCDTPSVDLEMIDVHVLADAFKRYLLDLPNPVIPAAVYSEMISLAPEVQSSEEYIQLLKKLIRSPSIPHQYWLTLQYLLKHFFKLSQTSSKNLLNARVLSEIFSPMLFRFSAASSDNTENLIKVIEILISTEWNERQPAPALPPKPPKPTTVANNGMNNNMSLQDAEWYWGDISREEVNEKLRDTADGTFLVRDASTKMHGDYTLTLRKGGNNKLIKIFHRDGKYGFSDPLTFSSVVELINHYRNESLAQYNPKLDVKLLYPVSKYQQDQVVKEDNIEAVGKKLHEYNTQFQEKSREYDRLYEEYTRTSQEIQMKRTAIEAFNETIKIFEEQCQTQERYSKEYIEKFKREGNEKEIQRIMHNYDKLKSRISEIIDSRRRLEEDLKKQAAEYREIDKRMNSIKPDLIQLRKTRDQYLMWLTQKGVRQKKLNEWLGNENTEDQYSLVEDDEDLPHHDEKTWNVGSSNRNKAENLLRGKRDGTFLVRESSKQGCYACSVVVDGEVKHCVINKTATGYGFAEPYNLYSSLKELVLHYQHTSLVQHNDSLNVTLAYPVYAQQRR

## CSCC[C@H](NC(=O)[C@H](Cc1ccccc1)NC(=O)[C@H](CCSC)NC(=O)[C@H](Cc1ccc(OP(=O)(O)O)cc1)NC(=O)CNC(C)=O)C(=O)N[C@@H](CO)C(N)=O [GS-1, GpYMFMS] (Ac-G[pY]MFMS-NH2)
[1]; 8 mg/kg i.p. daily for 12 days
  influence on the in vivo growth of the tumor NCI-H460 (in words): highly significant and potent influence; also recorded: statistically significant and potent anti-tumoral activity
[1]; 8 mg/kg i.p. daily for 12 days, n=5
  mean tumor volume at the end of treatment: 234.98 ± 69.22 mm^3
[1]; Table 2, 8 mg/kg i.p. daily, day 1
  Mean tumor volume D1: 114 mm³
[1]; Table 2, 8 mg/kg i.p. daily, day 3
  Mean tumor volume D3: 133 mm³
[1]; Table 2, 8 mg/kg i.p. daily, day 5
  Mean tumor volume D5: 124 mm³
[1]; Table 2, 8 mg/kg i.p. daily, day 7
  Mean tumor volume D7: 141 mm³
[1]; Table 2, 8 mg/kg i.p. daily, day 9
  Mean tumor volume D9: 231 mm³
[1]; Table 2, 8 mg/kg i.p. daily, day 11
  Mean tumor volume D11: 334 mm³
[1]; Table 2, 8 mg/kg i.p. daily, day 13
  Mean tumor volume D13: 235 mm³
[2]
  solubility in 10% DMSO: soluble
[3]; 8 mg/kg intraperitoneally every day, 12 injections
  toxicity and body weight loss during treatment: No toxicity and no body weight loss
[3]; Table 1, 8 mg/kg i.p. daily, day 1, in g
  Mean body weight D1: 23.58
[3]; Table 1, 8 mg/kg i.p. daily, day 3, in g
  Mean body weight D3: 23.27
[3]; Table 1, 8 mg/kg i.p. daily, day 5, in g
  Mean body weight D5: 20.69
[3]; Table 1, 8 mg/kg i.p. daily, day 7, in g
  Mean body weight D7: 23.29
[3]; Table 1, 8 mg/kg i.p. daily, day 9, in g
  Mean body weight D9: 23.72
[3]; Table 1, 8 mg/kg i.p. daily, day 11, in g
  Mean body weight D11: 23.81
[3]; Table 1, 8 mg/kg i.p. daily, day 13, in g
  Mean body weight D13: 23.48
[4]
  in vitro angiogenesis-inhibitory activity: have in vitro angiogenesis-inhibitory activities
[5]
  amounts of mTOR in HMEC relative to vehicle: much less amounts of mTOR
[6]
  influence onto the recruitment of the regulatory subunit (p85) of PI3K by IRS-1: very strong inhibitory effects

## DpYMTMQ (Ac-D[pY]MTMQ-NH2) [GS-3, tyrosine phosphorylated peptide]
[4]
  in vitro angiogenesis-inhibitory activity: have in vitro angiogenesis-inhibitory activities
